In patent publication US20110059114A1, “Compositions and Methods for the Treatment of Radioresistant Glioma Stem Cells” (DUKE UNIVERSITY, priority 2009, published 2011):

Key:
Type in all cases: cell-based, human
Notch signaling = test: Notch-responsive luciferase reporter (RBP-Jκ reporter) assay; settings: T4302 CD133+ cells; 2 μM DAPT or 0.5 μM L685,458 over night
From the text: FIG. 1 is a series of graphs illustrating that γ-secretase inhibitors reduce cell growth and clonogenic survival of glioma stem cells following radiation. (A) T4302 CD133+ glioma stem cells were transfected with a Notch-responsive luciferase reporter (RBP-JK reporter) pre-mixed with the vector directing constitutive expression of Renilla luciferase. Cells were left unirradiated or irradiated at 3 Gy, and were then collected to measure luciferase activities at time points as indicated. […] The relative mRNA levels of Hes2 were determined by quantitative real-time PCR at the time points as indicated. […] Total viable cell numbers were then determined by the CellTiter-Glo Luminescent Cell Viability Assay (Promega) for the following five days. […] Cells were then plated to form neurospheres, and the surviving fractions were determined as described in methods. […] (F,G) Neurosphere formation of T3359 and T4105 CD 133+ cells treated with GSIs alone, 3-Gy radiation alone, or the combination was determined as described in FIG. 1E. *: p<0.05 by Student's t-test; #: p<0.001 by one-way ANOVA.
Luciferase assay. […] The luciferase activities were determined by the Dual-luciferase assay system (Promega).

T4302 CD133+ cells [1] = test: Trypan blue exclusion assay; settings: two days after 3-Gy radiation
Description: (§1) FIG. 2 is a series of graphs illustrating that γ-secretase inhibitors enhance radiation-induced cell death in glioma stem cells. (A) T4302 CD 133+ cells were pre-treated with DAPT or L685,458 for 4 hours and irradiated at 3 Gy. Percentage of dead cells was determined by trypan blue exclusion assay at 48 hours after radiation exposure. (B) T4302 CD 133+ cells were treated with GSIs ±radiation as indicated. Cells were then plated at 3000 cells per well in 96-well plates. Relative caspase 3/7 activities were determined by normalizing caspase activities to the corresponding cell titers. (C) T4302 CD 133+ cells were treated as described in FIG. 2A. 24 or 48 hours after radiation exposure, cells were labeled with FITC-conjugated Annexin V staining kit (BD Sciences) according to manufacturer's instructions and analyzed by flow cytometry. (D) T4302 CD 133+ cells were pre-treated with 2 μM DAPT for 4 hours, and were left unirradiated or irradiated at 1, 2 or 3 Gy. Relative caspase 3/7 activities were determined at 72 hours after radiation. (E) T4302 CD133+ cells were pre-treated with DAPT at indicated concentrations for 4 hours and irradiated at 3 Gy. Relative caspase activities were determined at 48 or 72 hours after radiation. *: p<0.01 by Student's t-test; #: p<0.01 by one-way ANOVA.

CD133+ glioma stem cells = test: Caspase-Glo 3/7 assay, relative caspase 3/7 activities
Description: as §1, with “(D) T4302 CD 133+ cells were pre-treated with 2 μM DAPT for 4 hours, and were left unirradiated or irradiated at 1, 2 or 3 Gy.” left out
The caspase activities at 48 or 72 hours after radiation were measured using the Caspase-Glo 3/7 assay (Promega) according to the manufacturer's instructions. The caspase activities were normalized to the corresponding cell titers to obtain the relative caspase 3/7 activities.

T4302 CD133+ cells [2] = test: Annexin V staining, flow cytometry
Description: as §1

Compound: CC(NC(=O)Cc1cc(F)cc(F)c1)C(=O)NC(C(=O)OC(C)(C)C)c1ccccc1 [DAPT, N-[N-(3,5-Difluorophenacetyl-L-alanyl)]-S-phenylglycine t-Butyl Ester]
- Notch signaling in glioma stem cells (Notch-responsive luciferase reporter) (Notch signaling): blocked
- dead cells (T4302 CD133+ cells [1]): 60%
- radiosensitizing effect (CD133+ glioma stem cells; 200 nM DAPT, 3 Gy): still being effective
- radiation-induced cell death (CD133+ glioma stem cells; 2 μM DAPT added 24 hours after radiation, T4105 or T4302 CD133+ cells): increased radiation-induced cell death
- radiation-induced cell death (caspase 3/7) (CD133+ glioma stem cells; 2 μM, radiation 1, 2 or 3 Gy, 72 hours): enhanced radiation-induced cell death
- radiosensitizing effects, dependence on concentration (CD133+ glioma stem cells; 3 Gy, 48 or 72 hours after radiation): concentration-dependent effect
- radiation-induced cell death of cells infected with control lentivirus (CD133+ glioma stem cells; irradiated, T4302 CD133+): sensitive to DAPT
- Annexin V-positive labeled cells (T4302 CD133+ cells [2]; 24 hours following 3 Gy radiation): not obvious
- Annexin V-positive labeled cells (T4302 CD133+ cells [2]; 48 hours following 3 Gy radiation): significantly increased
- percentage of Annexin V-positive cells (T4302 CD133+ cells [2]; NICD2 expression): failed to increase
